{"source": "patent US10517889B2", "about": "“Modulators of SMAD7 expression” (Ionis Pharmaceuticals, Inc., priority 2017, dated 2019)", "system": "human SMAD7 mRNA", "experiment": "Antisense inhibition of human SMAD7 mRNA expression in Hep3B cells by 3-10-3 cEt gapmers, 10,000 nM, electroporation (Example 2)", "format": "cell-based", "conditions": "approximately 24 hours", "summary_of_the_method": "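qRT-PCR (RTS5062) of SMAD7 mRNA, normalised to RIBOGREEN total RNA, gave percent inhibition relative to untreated controls. Hep3B cells at 20,000 per well received 10,000 nM oligonucleotide by electroporation, with ~24 h treatment.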", "key": {"[1]": {"conditions": "Hep3B cells, electroporation with 10,000 nM antisense oligonucleotide, primer probe set RTS5062, relative to untreated control cells"}, "[2]": {"conditions": "Hep3B cells, electroporation with 10,000 nM antisense oligonucleotide, SMAD7 mRNA by RT-PCR (RTS5062), relative to untreated control cells"}, "[3]": {"conditions": "Hep3B cells, electroporation with 10,000 nM antisense oligonucleotide, RTS5062, percent inhibition of SMAD7 mRNA relative to untreated control cells"}, "[4]": {"conditions": "Hep3B cells, electroporation, 10,000 nM antisense oligonucleotide, RTS5062, relative to untreated control cells"}, "[5]": {"conditions": "SMAD7 mRNA, Hep3B cells, 10,000 nM antisense oligonucleotide, electroporation, primer probe set RTS5062, relative to untreated control cells"}, "[6]": {"conditions": "SMAD7 mRNA, Hep3B cells, electroporation with 10,000 nM antisense oligonucleotide, primer probe set RTS5062, relative to untreated control cells"}, "[7]": {"conditions": "Hep3B cells, 10,000 nM antisense oligonucleotide, electroporation, RT-PCR primer probe set RTS5062, relative to untreated control cells"}}, "note": "Strand notation (5' to 3'): a small letter for the sugar, then the base; units joined by * are phosphorothioate-linked, units joined directly phosphodiester-linked; [ ] holds rarer units or linkages, { } end groups; capitals alone tell only the bases. k = constrained ethyl (cEt); [5mC] = 5-methylcytosine; d = 2'-deoxy (DNA)", "data": [{"substance": "798989 (antisense kA*kA*kG*dT*dG*dA*dA*dA*dT*dG*dA*dT*dG*kA*k[5mC]*k[5mC]) [compound 798989]", "values": [{"measurement": "% inhibition of SMAD7 mRNA expression", "setting": "[1]", "value": 8, "unit": "%"}]}, {"substance": "798756 (k[5mC]*kG*k[5mC]*d[5mC]*d[5mC]*d[5mC]*d[5mC]*dG*dG*dG*d[5mC]*d[5mC]*d[5mC]*kA*kG*k[5mC]; antisense) [compound 798756]", "values": [{"measurement": "% Inhibition", "setting": "[2]", "value": 16, "unit": "%"}]}, {"substance": "799801 (kA*kA*kT*d[5mC]*dA*dA*dG*dT*d[5mC]*d[5mC]*dT*d[5mC]*dT*kG*kG*kA; antisense) [compound 799801]", "values": [{"measurement": "% Inhibition", "setting": "[3]", "value": 18, "unit": "%"}]}, {"substance": "800059 (antisense kA*kA*kA*dA*d[5mC]*dA*dA*dG*dA*d[5mC]*dA*dG*dG*kG*kA*k[5mC]) [compound 800059]", "values": [{"measurement": "% Inhibition", "setting": "[2]", "value": 31, "unit": "%"}]}, {"substance": "799942 (antisense kA*kA*k[5mC]*dA*d[5mC]*dT*dG*dG*dT*dT*d[5mC]*d[5mC]*dA*kT*kT*kT) [compound 799942]", "values": [{"measurement": "% Inhibition", "setting": "[2]", "value": 0, "unit": "%"}]}, {"substance": "799320 (antisense kG*kT*k[5mC]*dT*dG*d[5mC]*dT*dG*dT*dG*dG*dA*dT*kT*kT*kG) [compound 799320]", "values": [{"measurement": "% inhibition of SMAD7 mRNA expression", "setting": "[4]", "value": 0, "unit": "%"}]}, {"substance": "790791 (kG*kG*kG*d[5mC]*dA*d[5mC]*dA*d[5mC]*d[5mC]*dA*d[5mC]*d[5mC]*dT*kG*k[5mC]*k[5mC]; antisense) [compound 790791]", "values": [{"measurement": "% Inhibition", "setting": "[5]", "value": 7, "unit": "%"}]}, {"substance": "799580 (kA*kA*kA*d[5mC]*d[5mC]*dT*dT*d[5mC]*d[5mC]*dG*dA*dA*dA*kG*kG*kA; antisense) [compound 799580]", "values": [{"measurement": "% inhibition of SMAD7 mRNA expression", "setting": "[4]", "value": 33, "unit": "%"}]}, {"substance": "799716 (antisense kG*kG*k[5mC]*dT*dA*d[5mC]*d[5mC]*dA*dG*d[5mC]*d[5mC]*dT*dT*kG*k[5mC]*kT) [compound 799716]", "values": [{"measurement": "% inhibition of SMAD7 mRNA expression", "setting": "[4]", "value": 32, "unit": "%"}]}, {"substance": "790532 (kG*k[5mC]*kA*d[5mC]*dG*dG*dG*d[5mC]*dA*dG*d[5mC]*dT*dG*k[5mC]*kT*kG; antisense) [compound 790532]", "values": [{"measurement": "% Inhibition", "setting": "[2]", "value": 0, "unit": "%"}]}, {"substance": "829978 (kA*kT*kA*dT*dT*dT*dA*dG*d[5mC]*dT*dG*dT*d[5mC]*kA*kG*kA; antisense) [compound 829978]", "values": [{"measurement": "% Inhibition", "setting": "[6]", "value": 50, "unit": "%"}]}, {"substance": "799780 (k[5mC]*k[5mC]*kA*dT*dA*dA*dA*d[5mC]*dA*dA*dA*d[5mC]*d[5mC]*kA*k[5mC]*kA; antisense) [compound 799780]", "values": [{"measurement": "% inhibition of SMAD7 mRNA expression", "setting": "[4]", "value": 28, "unit": "%"}]}, {"substance": "799398 (antisense k[5mC]*kT*kT*dG*dG*dA*dA*dA*dA*dT*dG*dA*dA*k[5mC]*kT*kT) [compound 799398]", "values": [{"measurement": "% inhibition of SMAD7 mRNA expression", "setting": "[1]", "value": 48, "unit": "%"}]}, {"substance": "799833 (antisense kT*kT*kT*d[5mC]*dT*dG*dA*dA*d[5mC]*dA*dG*dA*dG*kT*k[5mC]*k[5mC]) [compound 799833]", "values": [{"measurement": "% inhibition of SMAD7 mRNA expression", "setting": "[4]", "value": 39, "unit": "%"}]}, {"substance": "829897 (antisense kG*k[5mC]*kG*dG*dG*dT*dG*dT*dA*dG*d[5mC]*dA*d[5mC]*kT*kG*kG) [compound 829897]", "values": [{"measurement": "% Inhibition", "setting": "[6]", "value": 40, "unit": "%"}]}, {"substance": "799177 (antisense kT*kT*kA*dT*dG*dT*dT*dA*dA*dA*dG*dT*d[5mC]*kT*kA*kA) [compound 799177]", "values": [{"measurement": "% Inhibition", "setting": "[1]", "value": 0, "unit": "%"}]}, {"substance": "790630 (kG*kG*kA*dA*d[5mC]*dA*dT*dA*dA*dA*d[5mC]*dT*d[5mC]*k[5mC]*kT*kT; antisense) [compound 790630]", "values": [{"measurement": "% Inhibition", "setting": "[1]", "value": 0, "unit": "%"}]}, {"substance": "798974 (antisense k[5mC]*kT*k[5mC]*dT*dT*d[5mC]*d[5mC]*dT*dA*dT*d[5mC]*dA*dG*kG*kG*kT) [compound 798974]", "values": [{"measurement": "% Inhibition", "setting": "[1]", "value": 12, "unit": "%"}]}, {"substance": "830171 (antisense kT*kG*k[5mC]*dT*d[5mC]*dT*dG*dT*dT*dT*dG*dG*dA*k[5mC]*kA*kA) [compound 830171]", "values": [{"measurement": "% Inhibition", "setting": "[2]", "value": 26, "unit": "%"}]}, {"substance": "799102 (antisense k[5mC]*kG*kG*dG*dA*dA*dA*dA*dA*d[5mC]*d[5mC]*dT*dG*kA*kT*kG) [compound 799102]", "values": [{"measurement": "% Inhibition", "setting": "[1]", "value": 34, "unit": "%"}]}, {"substance": "798785 (k[5mC]*kT*kA*dG*dT*dT*d[5mC]*dG*d[5mC]*dA*dG*dA*dG*kT*k[5mC]*kG; antisense) [compound 798785]", "values": [{"measurement": "% inhibition of SMAD7 mRNA expression", "setting": "[1]", "value": 0, "unit": "%"}]}, {"substance": "829737 (antisense kA*kG*kG*dA*dG*d[5mC]*dG*dA*dA*d[5mC]*dA*dT*dG*kA*k[5mC]*k[5mC]) [compound 829737]", "values": [{"measurement": "% Inhibition", "setting": "[5]", "value": 52, "unit": "%"}]}, {"substance": "799551 (kT*kT*kA*d[5mC]*dA*dG*d[5mC]*dT*d[5mC]*d[5mC]*dT*dA*d[5mC]*kT*kG*kT; antisense) [compound 799551]", "values": [{"measurement": "% Inhibition", "setting": "[3]", "value": 12, "unit": "%"}]}, {"substance": "799919 (antisense kT*k[5mC]*k[5mC]*dT*dA*dA*dG*dA*dG*d[5mC]*dA*dT*dT*kT*kA*kT) [compound 799919]", "values": [{"measurement": "% Inhibition", "setting": "[7]", "value": 0, "unit": "%"}]}, {"substance": "800098 (antisense kT*kT*kT*dT*dA*dG*dG*dG*d[5mC]*d[5mC]*dT*d[5mC]*dA*kA*kA*kA) [compound 800098]", "values": [{"measurement": "% Inhibition", "setting": "[7]", "value": 1, "unit": "%"}]}, {"substance": "799433 (antisense kT*kT*k[5mC]*dT*dT*dG*dT*dG*dG*dG*dA*dT*dG*kT*kG*kG) [compound 799433]", "values": [{"measurement": "% Inhibition", "setting": "[2]", "value": 56, "unit": "%"}]}, {"substance": "829803 (kA*kG*kT*dT*d[5mC]*dG*d[5mC]*dA*dG*dA*dG*dT*d[5mC]*kG*kG*k[5mC]; antisense) [compound 829803]", "values": [{"measurement": "% Inhibition", "setting": "[6]", "value": 35, "unit": "%"}]}, {"substance": "829883 (antisense k[5mC]*kA*kG*dG*d[5mC]*dT*dG*dT*dA*d[5mC]*dG*d[5mC]*d[5mC]*kT*kT*k[5mC]) [compound 829883]", "values": [{"measurement": "% Inhibition", "setting": "[6]", "value": 0, "unit": "%"}]}, {"substance": "772702 (k[5mC]*kG*kT*d[5mC]*dT*dT*dT*dA*dT*dA*dT*dT*dT*kA*k[5mC]*kA; antisense) [compound 772702]", "values": [{"measurement": "% Inhibition", "setting": "[1]", "value": 23, "unit": "%"}]}, {"substance": "799776 (k[5mC]*kA*kG*dA*dA*dG*dG*dA*d[5mC]*d[5mC]*dA*dA*dG*kT*k[5mC]*k[5mC]; antisense) [compound 799776]", "values": [{"measurement": "% inhibition of SMAD7 mRNA expression", "setting": "[4]", "value": 11, "unit": "%"}]}, {"substance": "799666 (antisense k[5mC]*kA*kG*dA*dT*dG*d[5mC]*d[5mC]*dA*dG*d[5mC]*dA*dA*kG*kG*kA) [compound 799666]", "values": [{"measurement": "% Inhibition", "setting": "[3]", "value": 51, "unit": "%"}]}, {"substance": "798833 (kT*kA*kG*dA*dT*d[5mC]*dA*dT*dA*dG*dA*dA*dG*kA*kT*kA; antisense) [compound 798833]", "values": [{"measurement": "% Inhibition", "setting": "[2]", "value": 48, "unit": "%"}]}, {"substance": "830079 (kA*kT*kA*d[5mC]*d[5mC]*d[5mC]*dT*dG*d[5mC]*dA*d[5mC]*dT*dT*kT*k[5mC]*kT; antisense) [compound 830079]", "values": [{"measurement": "% Inhibition", "setting": "[2]", "value": 22, "unit": "%"}]}, {"substance": "798765 (kA*kA*k[5mC]*dA*d[5mC]*dT*dT*dT*dG*d[5mC]*dA*d[5mC]*dA*kG*k[5mC]*kA; antisense) [compound 798765]", "values": [{"measurement": "% inhibition of SMAD7 mRNA expression", "setting": "[1]", "value": 63, "unit": "%"}]}, {"substance": "799288 (antisense kT*kA*kA*dT*dG*dG*dT*d[5mC]*dT*dG*d[5mC]*dT*d[5mC]*kA*kG*kG) [compound 799288]", "values": [{"measurement": "% inhibition of SMAD7 mRNA expression", "setting": "[4]", "value": 23, "unit": "%"}]}, {"substance": "798704 (antisense k[5mC]*kT*kG*dT*d[5mC]*d[5mC]*dG*dT*d[5mC]*dG*d[5mC]*d[5mC]*d[5mC]*k[5mC]*kT*kT) [compound 798704]", "values": [{"measurement": "% inhibition of SMAD7 mRNA expression", "setting": "[1]", "value": 61, "unit": "%"}]}, {"substance": "799158 (antisense kT*kA*kT*dG*dA*dG*dT*dT*dG*dT*dA*dG*dA*kA*kG*kA) [compound 799158]", "values": [{"measurement": "% Inhibition", "setting": "[1]", "value": 33, "unit": "%"}]}]}
